Laboratory results as given in patent publication US20100029507A1, “THE BIOCHIP FOR THE DETECTION OF PHOSPHORYLATION AND THE DETECTION METHOD USING THE SAME” (priority 2006, published 2010).
Residues, ends and D or L forms follow the SMILES beside them.

Biological target: cAMP-dependent protein kinase (Homo sapiens, UniProt P17612)
Assay: phosphorylation of chip-fixed substrate by kinase with [γ-32P]ATP, X-ray film detection
Type: biochemical
Settings: substrate spotted on aldehyde coated slide glass, 10 units cAMP-dependent protein kinase, reaction one hour, sensitized 12~24 hours
Description: First, kemptide (Promega, Madison, Wis.) or malic enzyme-kemptide fusion protein was fixed on a slid glass as a substrate. Particularly, kemptide was dissolved in kemptide solution (10% glycerol, 60% PBS, pH 7.5) at the concentration of 0.1 mg/ml and this substrate solution was integrated on the aldehyde coated slid glass by using a microarrayer [Affymetrix 417 Arrayer (Takara Shuzo, Japan)] with leaving 300 μm distance between spots (2500/1 cm^2). The malic enzyme-kemptide prepared in Example 1 was also integrated on the slid glass with leaving 300 μm distance between spots (2500/1 cm^2). At this time, the size of each spot was 50 μm. The biochip integrated with substrate as described above was fixed in a 30° C. humid chamber for one hour. The biochip prepared in Example 2 was washed three times with washing buffer (2 mM KH2PO4, 1 mM Na2HPO4, 200 mM NaCl, 3 mM KCl, pH 7.5) and then reaction between the substrate and kinase was induced on the chip. Particularly, the chip was washed with kinase buffer (50 mM Tris-HCl, 10 mM MgCl2, pH 7.5) once and then pre-incubation was performed in the kinase buffer supplemented with 100 μM of ATP. […] The reacted biochip was sensitized on X-ray film for 12˜24 hours and then phosphorylation by kinase was measured.

**Q.** With CC(C)C[C@H](NC(=O)[C@H](CO)NC(=O)[C@H](C)NC(=O)[C@H](CCCNC(=N)N)NC(=O)[C@H](CCCNC(=N)N)NC(=O)[C@@H](N)CC(C)C)C(=O)NCC(=O)O [kemptide] (H-LRRASLG-OH) as the compound, how does the “phosphorylation by kinase (spot signal on X-ray film)” value read?
**A.** The value was “spot signals were clearly confirmed”.
